Consider four molecules from article PMC12254266, “Multicolored sequential resonance energy transfer for detection of simultaneous ligand binding at G protein-coupled receptors” (Nature Communications, 2025).

Where “and” joins values, the source holds several entries; their conditions need not be identical. Equal entries are not always repeated.

The target in one assay is FFA1 (Homo sapiens, UniProt O14842). Nature of the assay: Ca2+ mobilisation (Fura2) in Flp-In T-REx 293 cells expressing Nluc-FFA1, FFA1-Nluc or untagged FFA1. The assay is classed as cell-based. Conditions: NR = No response; for pEC50: Ca2+ data, mean±SEM; for EMax: percentage of response to 10 μM T360. Details: expressed in transfected cells. Here is the method:
Nluc-FFA1, FFA1-Nluc or untagged FFA1 Flp-In T-REx 293 cells were plated at 50,000 cells per well in poly-D-lysine coated black clear bottom 96-well plates. Cells were then cultured for 24 h until reaching confluency before culture medium was replaced with medium containing 100 ng/mL of doxycycline to induce receptor expression. Cells were cultured for a further 24 h before the assay. On the day of the assay culture medium was removed and replaced with medium containing 3 μM Fura2-AM Ca^2+ dye. […] Fura2 fluorescent emission at 520 nm following excitation with each of 340 and 380 nm was measured in regular intervals both before and after adding test compounds for a total of 90 s per well. Calcium responses were determined by taking the peak 340/380 ratio after first subtracting the ratios obtained prior to addition of test compound.
In general terms: Calcium assays in cells follow changes in intracellular calcium, usually with a dye or a luminescent sensor.

The target in a further assay is T1, Nluc-FFA1 (Homo sapiens, UniProt O14842).
T1 construct: expressed in transfected cells
Nature of the assay: NanoBRET binding (saturation, competition, kinetics) at N terminal Nluc tagged FFA1. The conditions noted are these: technical duplicates; for Specific BRET (690/450)%: Figure 4Ci; for Specific BRET (540/450)%: Figure 4Cii. Here is the method: Nluc-FFA1 or FFA1-Nluc Flp-In T-REx 293 cells were plated at 50,000 cells per well in poly-D-lysine coated white 96-well plates. Cells were cultured for 24 h in the plate before medium was replaced with medium containing 100 ng/mL of doxycycline to induce receptor expression. After culturing for a further 24 h, medium was removed, cells were washed with HBSS and incubated in HBSS for 30 min. To start the assay, NanoGlo substrate (Promega, N1110) was added to the cells at a 1:800 final dilution and incubated for 10 min at 37 °C. For endpoint assays, including both saturation and competition binding, test ligands were then added, including both fluorescent and unlabelled competing ligands as indicated, and plates incubated for a further 5 min at 37 °C. NanoBRET was then quantified in a CLARIOstar microplate reader (BMG Labtech) by measuring luminescent emission with the monochrometer set for the Nluc donor at 450–60 nm, and acceptor luminescent emission 540–60 nm (NBD), 600–80 nm (Cy3.5) or 690–100 nm (SulfoCy5), depending on which fluorophore was being tested. The acceptor/donor BRET ratio was then taken as a measure of fluorophore binding. For kinetic on then off NanoBRET experiments plates were washed the same way and substrate was added to the same concentration. However, 10 min after substrate was added plates were inserted into the CLARIOstar microplate reader set to 25 °C to take repeated measurements of luminescent emission for both the donor and the acceptor fluorophore being used. After 5 min of background measurements, the indicated concentration of fluorescent ligand was added using the plate reader injector and luminescent emission was monitored for ~10 min before the reader was paused to manually add a high concentration of appropriate competing ligand to initiate dissociation. The plate was returned to the reader and luminescence measurements were continued for a further 30 min to monitor dissociation of the fluorescent ligand. For kinetic experiments using multiple concentrations of fluorescent ligand, cells were placed in the plate reader immediately after the addition of Nano-Glo substrate and luminescent measurements were taken. After 5 min, the reader was paused to add the indicated concentrations of fluorescent ligand, before measurements were continued. To set non-specific binding for kinetic experiments, the indicated competing ligand was added 5 min before the addition of the fluorescent ligand.

The target of the next assay is FFA1-Nluc (Homo sapiens, UniProt O14842). Nature of the assay: DISCo-BRET (endpoint, spectra scan, kinetics) with TUG-2591 and TUG-2597 at C terminal Nluc tagged FFA1. Format: binding. Set-up: expressed in transfected cells. Conditions: for Specific BRET (540/450), % of control: Figure 4Bi, single replicate values (technical duplicate); for Specific BRET (690/540), % of control: technical duplicate. As to the method: Nluc-FFA1 or FFA1-Nluc Flp-In T-REx 293 cells were plated at 50,000 cells per well in poly-D-lysine coated white 96-well plates. Cells were cultured for 24 h in the plate before medium was replaced with medium containing 100 ng/mL of doxycycline to induce receptor expression. After culturing for a further 24 h, culture medium was removed, cells washed with HBSS and incubated in HBSS for 30 min. For all DISCo-BRET formats Nano-Glo substrate was then added at a 1:800 final dilution and cells incubated for 10 min. Following substrate addition experimental set up different among the three formats: endpoint, spectra scan, and kinetics.
For endpoint experiments all fluorescent and unlabelled ligands were added to the cells and incubated for 5 min at 37 °C. Luminescent emission was then measured using a CLARIOstar microplate reader with monochromator set at 450–60 nm (Nluc), 540−60 nm (NBD) and 690–100 nm (SulfoCy5). BRET ratios were then calculated as either SulfoCy5 emission divided by NBD emission, SulfoCy5 emission divided by Nluc emission, or NBD emission divided by Nluc emission.
For spectra scan experiments all indicated fluorescent and unlabelled ligands were added to the cells and cells incubated for 5 min at 37 °C. Luminescence emissions were then measured from each well of the plate from 440 nm – 740 nm with a 5 nm resolution using a CLARIOstar microplate. Luminescent emission spectra were then normalised as a percentage of the maximal Nluc emission peak ( ~ 460 nm), then subtracted with the spectrum obtained in the presence of high concentrations of ligands competing for both binding sites to obtain specific BRET binding spectra.
In kinetic DISCo-BRET experiments plates were placed directly in a CLARIOstar plate reader set to 25 °C 10 min after Nano-Glo substrate addition. Luminescent measurements were then taken with three sequential measurements per well with the monochromator set to 450–60 nm (Nluc), 540 - 60 nm (NBD) and 690–100 nm (SulfoCy5) taken in 20 or 30 s intervals. After 5 min of background measurements, the plate reader was paused for the first indicated fluorescent ligand(s) addition, before immediately returning the plate to the reader to continue luminescence readings. After 5 min, the reader was again paused to add the second fluorescent ligand (association assays) or competing ligand(s) (dissociation assays), before immediately continuing the measurements for the indicated time. Non-specific control binding was obtained by adding the indicated competing ligand(s) 5 min prior to the addition of the first fluorescent ligand.

T1 sequence (O14842 whole entry): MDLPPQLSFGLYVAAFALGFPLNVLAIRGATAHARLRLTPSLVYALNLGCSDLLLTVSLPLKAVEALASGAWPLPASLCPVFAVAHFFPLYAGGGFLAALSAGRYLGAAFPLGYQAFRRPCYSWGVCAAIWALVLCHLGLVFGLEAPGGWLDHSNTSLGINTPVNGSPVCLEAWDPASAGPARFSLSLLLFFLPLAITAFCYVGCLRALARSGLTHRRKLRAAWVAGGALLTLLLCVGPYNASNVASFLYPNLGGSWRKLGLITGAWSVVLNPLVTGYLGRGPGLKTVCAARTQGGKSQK
Chain of FFA1-Nluc (O14842 whole entry): as above
Chain of FFA1 (O14842 whole entry): as above

The term pEC50 denotes the negative decadic logarithm of the EC50, by convention in mol/L. The low end stands for a high EC50, the high end for a low EC50. At FFA1, `COc1ccc(C(=O)N(CC(C)(C)CNC(=O)OC(C)(C)C)c2ccccc2)c(N2CCC(COc3cccc(C(CC(=O)O)C4CC4)c3)CC2)c1.O=C(O)C(F)(F)F` (stereo not shown) [TUG-2467] showed a pEC50 of 6.78±0.02 and an EMax of 124±9%.

For `COc1ccc(C(=O)N2CCC(CNC(=O)OC(C)(C)C)CC2)c(N2CCC(COc3cccc(C(CC(=O)O)C4CC4)c3)CC2)c1.O=C(O)C(F)(F)F` (stereo not shown) [TUG-2450], at FFA1, the pEC50 is 6.18±0.09 and the EMax turned out to be 108±7%.

For `Cc1cc(OCCCS(C)(=O)=O)cc(C)c1-c1cccc(COc2ccc3c(c2)OC[C@H]3CC(=O)O)c1` [TAK-875], the “Specific BRET (690/450)%” value at Nluc-FFA1 (log[Ligand] -6) is 10.18% and 12.73% and 3.99% and 7.92% and 4.81% and 6.50%; on Nluc-FFA1 (log[Ligand] -6.5) it was 32.21% and 35.14% and 21.21% and 27.75% and 22.79% and 22.32%; on Nluc-FFA1 (log[Ligand] -7), 65.25% and 65.98% and 70.04% and 73.07% and 59.65% and 56.69%; on Nluc-FFA1 (log[Ligand] -7.5), 85.12% and 83.85% and 95.80% and 94.83% and 87.89% and 88.68%; at Nluc-FFA1 (log[Ligand] -8), 89.18% and 88.01% and 105.30% and 110.61% and 94.39% and 90.53%; at Nluc-FFA1 (log[Ligand] -9) it was 97.11% and 97.99% and 104.48% and 114.53% and 100.63% and 97.67%. Further, the “Specific BRET (690/450)%” value on Nluc-FFA1 (log[Ligand] -10) was 87.86% and 92.46% and 110.54% and 109.16% and 102.75% and 97.62%; at Nluc-FFA1 (log[Ligand] -11), 100.29% and 99.71% and 99.72% and 100.28% and 98.52% and 101.48%. The “Specific BRET (540/450)%” value was 172.87% and 190.47% and 142.88% and 120.34% and 106.26% and 112.65% and 111.64% and 106.85% at Nluc-FFA1 (log[Ligand] -9); 149.59% and 142.25% and 115.93% and 128.15% and 104.61% and 106.65% and 101.74% and 108.27% on Nluc-FFA1 (log[Ligand] -10); 103.21% and 96.79% and 95.91% and 104.09% and 99.52% and 100.48% and 105.48% and 94.52% on Nluc-FFA1 (log[Ligand] -11). Also, the “Specific BRET (540/450), % of control” value on FFA1-Nluc (log[Ligand] -6) was 467.51 % of control and 353.62 % of control and 390.67 % of control and 390.47 % of control and 245.96 % of control and 264.46 % of control and 322.48 % of control and 320.38 % of control; on FFA1-Nluc (log[Ligand] -6.5), 416.30 % of control and 439.27 % of control and 347.06 % of control and 353.35 % of control and 259.50 % of control and 260.52 % of control and 247.59 % of control and 261.94 % of control; on FFA1-Nluc (log[Ligand] -7), 359.13 % of control and 319.17 % of control and 300.41 % of control and 327.99 % of control and 232.12 % of control and 230.66 % of control and 238.32 % of control (2×); at FFA1-Nluc (log[Ligand] -7.5) it was 230.54 % of control and 249.60 % of control and 216.23 % of control and 242.80 % of control and 172.25 % of control and 154.77 % of control and 142.78 % of control and 178.30 % of control; on FFA1-Nluc (log[Ligand] -8), 168.77 % of control and 177.73 % of control and 170.59 % of control and 182.76 % of control and 139.62 % of control and 128.26 % of control and 117.24 % of control and 129.48 % of control; at FFA1-Nluc (log[Ligand] -9) it was 109.76 % of control and 130.42 % of control and 118.05 % of control and 144.22 % of control and 109.32 % of control and 101.46 % of control and 92.91 % of control and 104.81 % of control. At FFA1-Nluc (log[Ligand] -10), the “Specific BRET (540/450), % of control” value was 110.45 % of control and 140.76 % of control and 99.39 % of control and 126.77 % of control and 105.68 % of control and 97.52 % of control and 91.86 % of control and 108.31 % of control. For the same molecule, the “Specific BRET (690/540), % of control” value was 98.23 % of control at FFA1-Nluc (log[Ligand] -9) and 82.90 % of control on FFA1-Nluc (log[ligand] -8). In addition, the “'bottom' of the IC50 curve, DISCo-BRET NBD/Nluc” value at FFA1-Nluc (percentage of binding obtained in the absence of competing ligand) is 360%. For the same molecule, on FFA1-Nluc (percentage of binding obtained in the absence of competing ligand, 100 nM TUG-2591 and […] TUG-2597), the “'bottom' of the IC50 curve, DISCo-BRET SulfoCy5/NBD” value is -3.0%.

With `COc1ccc(C(=O)NCC(C)(C)CNC(=O)OC(C)(C)C)c(N2CCC(COc3cccc(C(CC(=O)O)C4CC4)c3)CC2)c1.Cl` (stereo not shown) [TUG-2457], on FFA1, the pEC50 is recorded as 6.62±0.15 and the EMax is 108±3%.
